The data set in a line: Plasma protein binding (equilibrium dialysis), mouse plasma. The data set is classed as in vitro ADME. As to conditions: C57, pH 7.4, read-out: Plasma Protein Binding: FREE Fraction mouse. As to the method:
Pooled and frozen plasma from selected species were obtained from commercial suppliers […]
(human […] and mouse […]3-C57; BioreclamationIV, NY, USA). Teflon […]
equilibrium dialysis plates (96-well, 150 μL, half-cell capacity) and cellulose membranes (12–14 kDa molecular weight cut-off) were purchased from HT-Dialysis (Gales Ferry, Connecticut). Both biological matrix and phosphate buffer pH were adjusted to 7.4 on the day of the experiment. The reference substance was diazepam.
The determination of unbound compound was performed using a 96-well format equilibrium dialysis device with a molecular weight cut-off membrane of 12 to 14 kDa. […]
At equilibrium, the unbound drug concentration in the biological matrix compartment of the equilibrium dialysis apparatus is the same as the concentration of the compound in the buffer compartment. Thus, the percent unbound fraction was be calculated by determining the compound concentrations in the buffer and matrix compartments after dialysis as follows: % fraction unbound = 100 × buffer concentration after dialysis/matrix concentration after dialysis. […]
P-glycoprotein (permeability-glycoprotein (P-gp), also known as multidrug resistance protein 1) is the most studied and best characterized drug transporter. […] The effect of P-gp was measured by expressing the efflux ratio of the unidirectional A > B and B > A Papp values. […]
In general terms: In equilibrium dialysis free small molecules cross a membrane that holds back macromolecules.

As for `CC(C)(C)c1nc(N2CC[C@H](O)C2)c2nnn(Cc3nnnn3C3CC3)c2n1` [RO6871304, (3S)-1-{5-tert-butyl-3-[(1-cyclopropyl-1H-tetrazol-5-yl)methyl]-3H-[1,2, 3]triazolo[4,5-d]pyrimidin-7-yl}pyrrolidin-3-ol], the fraction unbound at 5 h, 1000 nM came to 0.031.

For the origin of these results see paper PMC6767236, “Selective Cannabinoid 2 Receptor Agonists as Potential Therapeutic Drugs for the Treatment of Endotoxin-Induced Uveitis” (Molecules, 2019).
